{"source": "patent US8796323B2", "about": "“Defensin-like molecules as novel antimicrobial agents” (University of Maryland, Baltimore, priority 2010, dated 2014)", "key": {"[1]": {"test": "ANTS/DPX leakage assay from large unilamellar vesicles", "protocol": "Large unilamellar vesicles (LUVs) with the low molecular weight fluorophore/quencher pair (ANTS/DPX) encapsulated were prepared using the standard extrusion method. Specifically, phospholipids were dissolved in chloroform at a desired molar ratio, dried as a film by solvent evaporation. After removal of residual solvent, the lipid film was hydrated in the fluorescent solution containing 5 mM HEPES, 12.5 mM ANTS, 45 mM DPX, and 20 mM NaCl, pH 7.0, freeze-thawed for 10 cycles and extruded 10 times through 0.4-μm polycarbonate membranes. LUVs were separated from unencapsulated materials by gel filtration chromatography using a Sepharose CL-4B column eluted with 5 mM HEPES, 100 mM NaCl, pH 7.4 (high-salt). For leakage assays in a low-salt buffer, purified vesicles were further diluted with 5 mM HEPES containing 10 mM NaCl, pH 7.4.\nLeakage of ANTS from LUVs, monitored on a LS-55 Perkin Elmer luminescence spectrometer, was characterized by an increase in fluorescence, which was quenched by DPX when encapsulated together inside liposomes (Ellens, H., et al., 1985, “H+- and Ca2+-induced fusion and destabilization of liposomes,” Biochemistry 24:3099-3106). 270 μl ANTS/DPX-encapsulated LUVs (in either high-salt or low-salt buffers) were added to each well of a 96-well plate to a final lipid concentration of 600 μM. 30 μl H2O was added to the first well of each row as a blank, and 30 μl 2.5% (v/v) Triton X-100 to the last (twelfth) well as the control for 100% leakage. Upon addition of 30 μl of a twofold dilution series of defensin, the fluorescence signal was recorded at 515 nm with an excitation wavelength of 353 nm, 10 nm bandwidths and a 390 nm cut-off filter in the emission path. Percent leakage is expressed as: % leakage=((Ft−F0)/(F100−F0))×100 where Ft is the fluorescence determined at different time points after addition of defensin, F0 is the background fluorescence of the “blank” cells, and F100 is the fluorescence of the control cells containing 0.25% Triton X-100. Lipid II Purification\nDefensins are believed to kill bacteria by permeabilizing the membrane, causing leakage of intracellular content and eventually cell lysis and death. The present inventors tested the ability of six human α-defensins to induce leakage of fluorophores encapsulated in LUVs (See FIG. 1). […] (A) At high salt concentration (5 mM HEPES, 100 mM NaCl, pH 7.4). (B) At low salt concentration (5 mM HEPES, 10 mM NaCl, pH 7.4). LUVs were 250 nm in diameter and 600 μM (phospholipids) in concentration.\n(A) Effects of surface charge on HNP1-induced leakage from LUVs of four different compositions: POPC (circle, surface charge=0), POPC/POPG=3:2 (square, surface charge=−0.4), POPC/POPG=2:3 (triangle, surface charge=−0.6), and POPG (diamond, surface charge=−1). (B) LUV (POPG:DPPC 1:1) leakage induced by L-HNP1 (circles) or D-HNP1 (squares). A two-fold dilution series of HNP1 peptides from 0.19 to 100 μg/ml was incubated with 600 μM LUVs for one hour before readings were taken. Error bars indicate the standard error in triplicate experiments."}, "[2]": {"test": "Surface Plasmon Resonance binding of HNP1 peptides and Lipid II", "details": "ratio of Kd values", "protocol": "Short-chain water-soluble Lipid II containing a lipid tail of three isoprene units was generated and purified essentially as described in Breukink, E., et al., 2003, “Lipid II is an intrinsic component of the pore induced by nisin in bacterial membranes,” J Biol Chem 278:19898-19903.\nTypically, M. flavus vesicles (120 μmol lipid-Pi) were incubated together with 500 μmol UDP-GlcNAc, 500 μmol UDP-MurNAC-pentapeptide and 400 μmol farnesyl phosphate in 100 mM Tris-HCl pH 8.0, 5 mM MgCl2. The incubation lasted two hours at room temperature for 3-P. The synthesis of 3-Lipid II was followed using RP-8 reversed phase TLC (Merck) developed in 75% methanol. […]\nSurface Plasmon Resonance binding experiments were carried out on a BIAcore T100 system (BIAcore Inc., Piscataway, N.Y.) at 25° C. […] Association and dissociation were assessed for 300 and 600 second, respectively. […] Binding isotherms were analyzed with manufacturer-supplied software for BIAcore T100 and/or GraphPad Prism 4.0.\nThe inventors used a Surface Plasmon Resonance (SPR) approach to determine the binding of HNP1 to Lipid II directly. Initial binding of L-HNP1, D-HNP1 and linear HNP1 to soluble Lipid II immobilized on the chip surface was determined. […]"}, "S. aureus": {"tested_on": "S. aureus", "details": "literature (Ericksen 2005; Wei 2009); cited from earlier work"}}, "note": "Entries after “also recorded” stand apart in the source; their conditions may differ.", "data": [{"substance": "HNP1: α-defensin Human Neutrophil Peptide 1, chemically synthesized and folded", "values": [{"measurement": "leakage from LUVs, L- versus D-enantiomer", "setting": "[1]; DPPC/POPG (1:1) LUVs, FIG. 2B", "value": "equally efficiently"}, {"measurement": "HNP1-induced leakage from LUVs composed solely of neutral lipid POPC", "setting": "[1]; POPC LUVs, surface charge 0, 0.19 to 100 μg/ml, regardless of incubation time", "value": "resistant to the attack by HNP1 at all concentrations used"}, {"measurement": "HNP1-induced leakage from LUVs as POPG content increases", "setting": "[1]; POPC:POPG 1:0, 3:2, 2:3, 0:1, POPG 0, 40%, 60%, 100%", "value": "increasingly pronounced"}, {"measurement": "membrane activity (leakage of ANTS-DPX from POPG LUVs)", "setting": "[1]; POPG LUVs, panel of six human α-defensins, FIG. 1", "value": "reduced"}, {"measurement": "affinity for Lipid II, L-HNP1 relative to D-HNP1", "setting": "[2]", "value": "approximately five times higher affinity than the D-peptide"}, {"measurement": "bactericidal activity against S. aureus / Gram-positive bacteria", "setting": "S. aureus", "value": "potently bactericidal; also recorded: kills Gram-positive bacteria very efficiently"}]}]}
